The results in this text go back to US10000499B2, “Methyl diazepane orexin receptor antagonists” (MERCK SHARP & DOHME CORP., priority 2014, dated 2018).

The target of one assay is T1, human orexin-2 receptor (Homo sapiens, UniProt O43614).
T1 construct: expressed in transfected cells; host or cells: CHO cells (grown under G418 selection)
T1 sequence (O43614 1-444): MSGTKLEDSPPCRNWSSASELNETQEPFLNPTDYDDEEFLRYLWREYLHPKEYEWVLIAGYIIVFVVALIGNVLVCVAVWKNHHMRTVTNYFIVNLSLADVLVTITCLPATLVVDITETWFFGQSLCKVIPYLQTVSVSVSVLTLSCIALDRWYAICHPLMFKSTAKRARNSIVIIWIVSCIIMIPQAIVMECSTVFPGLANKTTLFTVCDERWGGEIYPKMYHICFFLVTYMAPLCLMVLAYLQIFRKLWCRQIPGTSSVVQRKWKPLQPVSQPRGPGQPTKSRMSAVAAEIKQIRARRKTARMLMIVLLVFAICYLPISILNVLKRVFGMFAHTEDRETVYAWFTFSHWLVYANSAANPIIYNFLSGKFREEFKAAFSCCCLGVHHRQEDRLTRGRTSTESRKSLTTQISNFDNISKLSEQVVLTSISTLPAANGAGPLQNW
The assay is described as follows: FLIPR Ca2+ flux assay, OX2R. The class given is cell-based. The settings on record: for IC50: CHO cells expressing human orexin-2 receptor, agonist 70 pM Ala-6,12 orexin-A, read-out: OX2R FLIPR; for Fold Selective: OX2R over OX1R, from FLIPR values. Here is the method:
(§1) For intracellular calcium measurements, Chinese hamster ovary (CHO) cells expressing the rat orexin-1 receptor or the human orexin-2 receptor, are grown in Iscove's modified DMEM containing 2 mM L-glutamine, […], 1% hypoxanthine-thymidine supplement, 100 U/ml penicillin, 100 μg/ml streptomycin and 10% heat-inactivated fetal calf serum (FCS). The cells are seeded at 20,000 cells/well into Becton-Dickinson black 384-well clear bottom sterile plates coated with poly-D-lysine. All reagents were from GIBCO-Invitrogen Corp. The seeded plates are incubated overnight at 37° C. and 5% CO2. Ala-6,12 human orexin-A as the agonist is prepared as a 1 mM stock solution in 1% bovine serum albumin (BSA) and diluted in assay buffer (HBSS containing 20 mM HEPES, 0.1% BSA and 2.5 mM probenecid, pH7.4) for use in the assay at a final concentration of 70 pM. Test compounds are prepared as 10 mM stock solution in DMSO, then diluted in 384-well plates, first in DMSO, then assay buffer. On the day of the assay, cells are washed 3 times with 100 μl assay buffer and then incubated for 60 min (37° C., 5% CO2) in 60 μl assay buffer containing 1 μM Fluo-4AM ester, 0.02% pluronic acid, and 1% BSA, The dye loading solution is then aspirated and cells are washed 3 times with 100 μl assay buffer, 30 μl of that same buffer is left in each well. Within the Fluorescent Imaging Plate Reader (FLIPR, Molecular Devices), test compounds are added to the plate in a volume of 25 μl, incubated for 5 min and finally 25 μl of agonist is added. Fluorescence is measured for each well at 1 second intervals for 5 minutes and the height of each fluorescence peak is compared to the height of the fluorescence peak induced by 70 pM Ala-6,12 orexin-A with buffer in place of antagonist. […] The intrinsic orexin receptor antagonist activity of a compound which may be used in the present invention may be determined by these assays.
For orientation: Calcium flux is commonly read through the fluorescence of an indicator in the cells.

In a further assay the target is T2, rat orexin-1 receptor (Rattus norvegicus, UniProt P56718).
T2 construct: expressed in transfected cells; host or cells: CHO cells (grown under G418 selection)
T2 sequence (P56718 1-416): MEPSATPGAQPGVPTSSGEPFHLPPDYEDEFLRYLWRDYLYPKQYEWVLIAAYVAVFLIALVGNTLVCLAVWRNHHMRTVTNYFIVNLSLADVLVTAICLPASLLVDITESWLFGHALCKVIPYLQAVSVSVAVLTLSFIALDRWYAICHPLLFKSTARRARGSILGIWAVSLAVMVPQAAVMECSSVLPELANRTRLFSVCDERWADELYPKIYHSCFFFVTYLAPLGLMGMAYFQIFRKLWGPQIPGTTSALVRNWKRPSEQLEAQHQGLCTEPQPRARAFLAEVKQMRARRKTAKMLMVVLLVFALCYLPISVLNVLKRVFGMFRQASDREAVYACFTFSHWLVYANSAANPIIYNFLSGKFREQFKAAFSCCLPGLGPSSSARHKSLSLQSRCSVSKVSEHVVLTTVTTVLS
As to the kind of experiment: FLIPR Ca2+ flux assay, OX1R. The class given is cell-based. The settings on record: CHO cells expressing rat orexin-1 receptor; agonist 70 pM Ala-6,12 orexin-A. The protocol: as §1

Molecules are shown by their SMILES.

For the compound `C[C@@H]1CCN(c2cccc(N3CCN(C)C3=O)n2)CCN1C(=O)c1cc(F)ccc1-n1nccn1` [Example 16, 1-{6-[(5R)-4-{[5-fluoro-2-(2H-1,2,3-triazol-2-yl)phenyl]carbonyl}-5-methyl-1,4-diazepan-1-yl]pyridin-2-yl}-3-methylimidazolidin-2-one], on human orexin-2 receptor, the IC50 was determined as 197 nM and the “Fold Selective” value was 50. Moreover, the IC50 at rat orexin-1 receptor is above 10000 nM.

`CC(O)c1cccc(N2CC[C@@H](C)N(C(=O)c3ccccc3-n3nccn3)CC2)n1` (stereo partly drawn) [Example 19, (2-(2H-1,2,3-triazol-2-yl)phenyl)((7R)-4-(6-(1-hydroxyethyl)pyridin-2-yl)-7-methyl-1,4-diazepan-1-yl)methanone]: at human orexin-2 receptor, the IC50 was found to be 20 nM and the “Fold Selective” value was found to be 127. For the same compound, the IC50 on rat orexin-1 receptor was 2550 nM.

Consider `COc1ccnc(N2CC[C@@H](C)N(C(=O)c3cccnc3OCC(F)F)CC2)c1` [Example 6, (5R)-4-{[2-(2,2-difluoroethoxy)pyridin-3-yl]carbonyl}-1-(4-methoxypyridin-2-yl)-5-methyl-1,4-diazepane], for which, at human orexin-2 receptor, the IC50 is 183 nM and the “Fold Selective” value is on record as 54. This compound also came in with an IC50 at rat orexin-1 receptor above 10000 nM.

On to `COc1ccnc(N2CC[C@@H](C)N(C(=O)c3ccccc3C3CCC3)CC2)c1` [Example 8, (5R)-4-[(2-cyclobutylphenyl)carbonyl]-1-(4-methoxypyridin-2-yl)-5-methyl-1,4-diazepane], for which, on human orexin-2 receptor, the IC50 was 123 nM and the “Fold Selective” value is recorded as 81. This compound also had an IC50 on rat orexin-1 receptor above 10000 nM.

For `C[C@@H]1CCN(c2cccc(C(C)(C)O)n2)CCN1C(=O)c1ccccc1-n1nccn1` [Example 20, (R)-(2-(2H-1,2,3-triazol-2-yl)phenyl)(4-(6-(2-hydroxypropan-2-yl)pyridin-2-yl)-7-methyl-1,4-diazepan-1-yl)methanone], the IC50 on human orexin-2 receptor is 32 nM; at rat orexin-1 receptor, 1960 nM. The “Fold Selective” value at human orexin-2 receptor was found to be 61.

For the compound `CC(C)C(=O)N(C)c1cccc(N2CC[C@@H](C)N(C(=O)c3ccccc3-n3nccn3)CC2)n1` [Example 17, N,2-dimethyl-N-{6-[(5R)-5-methyl-4-{[2-(2H-1,2,3-triazol-2-yl)phenyl]carbonyl}-1,4-diazepan-1-yl]pyridin-2-yl}propanamide], on human orexin-2 receptor, the IC50 was 48 nM and the “Fold Selective” value is listed as 208. At rat orexin-1 receptor, this compound yielded an IC50 above 10000 nM.

For `C[C@@H]1CCN(c2cccc(N3CCN(C)C3=O)n2)CCN1C(=O)c1cccc(F)c1-n1nccn1` [Example 14, 1-{6-[(5R)-4-{[3-fluoro-2-(2H-1,2,3-triazol-2-yl)phenyl]carbonyl}-5-methyl-1,4-diazepan-1-yl]pyridin-2-yl}-3-methylimidazolidin-2-one], the IC50 at human orexin-2 receptor is 58 nM; at rat orexin-1 receptor, 3180 nM. The “Fold Selective” value at human orexin-2 receptor came to 55.

In the case of `COc1ccnc(N2CC[C@@H](C)N(C(=O)c3ccccc3C3(C#N)CC3)CC2)c1` [Example 4, 1-(2-{[(7R)-4-(4-methoxypyridin-2-yl)-7-methyl-1,4-diazepan-1-yl]carbonyl}phenyl)cyclopropane-carbonitrile], on human orexin-2 receptor, the IC50 was 163 nM and the “Fold Selective” value is 61. For the same compound, at rat orexin-1 receptor, the IC50 was above 10000 nM.

`C[C@@H]1CCN(c2cccc(N3CCN(C)C3=O)n2)CCN1C(=O)c1ccccc1-n1nccn1` [Example 11, 1-methyl-3-{6-[(5R)-5-methyl-4-{[2-(2H-1,2,3-triazol-2-yl)phenyl]carbonyl}-1,4-diazepan-1-yl]pyridin-2-yl}imidazolidin-2-one]: on human orexin-2 receptor, the IC50 is 104 nM and the “Fold Selective” value is on record as 46. The IC50 on rat orexin-1 receptor was found to be 4760 nM.

For `COc1ccnc(N2CC[C@@H](C)N(C(=O)c3ccccc3-n3nccn3)CC2)c1` [Example 2, (R)-(2-(2H-1,2,3-triazol-2-yl)phenyl)(4-(4-methoxypyridin-2-yl)-7-methyl-1,4-diazepan-1-yl)methanone], at human orexin-2 receptor, the IC50 came to 45 nM and the “Fold Selective” value stood at 57. This compound also came in with an IC50 on rat orexin-1 receptor of 2590 nM.

As to `C[C@@H]1CCN(c2cccc(N(C)C(=O)C3CC3)n2)CCN1C(=O)c1ccccc1-n1nccn1` [Example 18, N-methyl-N-{6-[(5R)-5-methyl-4-{[2-(2H-1,2,3-triazol-2-yl)phenyl]carbonyl}-1,4-diazepan-1-yl]pyridin-2-yl}cyclopropanecarboxamide], at human orexin-2 receptor, the IC50 is 71 nM and the “Fold Selective” value was 128. For the same compound, the IC50 on rat orexin-1 receptor worked out at 9130 nM.

As to `COc1ccnc(N2CC[C@@H](C)N(C(=O)c3ccsc3-n3nccn3)CC2)c1` [Example 3, (R)-(2-(2H-1,2,3-triazol-2-yl)thiophen-3-yl)(4-(4-methoxypyridin-2-yl)-7-methyl-1,4-diazepan-1-yl)methanone], at human orexin-2 receptor, the IC50 is 122 nM and the “Fold Selective” value worked out at 82. This compound also had an IC50 on rat orexin-1 receptor above 10000 nM.

Consider `COc1ccnc(N2CC[C@@H](C)N(C(=O)c3cccnc3OCC(F)(F)F)CC2)c1` [Example 7, (5R)-1-(4-methoxypyridin-2-yl)-5-methyl-4-{[2-(2,2,2-trifluoroethoxy)pyridin-3-yl]carbonyl}-1,4-diazepane], for which, on human orexin-2 receptor, the IC50 was 92 nM and the “Fold Selective” value was 108. At rat orexin-1 receptor, this compound came in with an IC50 above 10000 nM.

`C[C@@H]1CCN(c2nccn3ccnc23)CCN1C(=O)c1cccnc1-n1cccn1` [Example 25, 8-[(5R)-5-methyl-4-{[2-(1H-pyrazol-1-yl)pyridin-3-yl]carbonyl}-1,4-diazepan-1-yl]imidazo[1,2-a]pyrazine]: at human orexin-2 receptor, the IC50 was found to be 126 nM and the “Fold Selective” value came out at 79. In addition, the IC50 on rat orexin-1 receptor was above 10000 nM.
